Experimental data published in ChEMBL document CHEMBL3992491, “Discovery, structure-activity relationship studies, and anti-nociceptive effects of N-(1,2,3,4-tetrahydro-1-isoquinolinylmethyl)benzamides as novel opioid receptor agonists” (Eur J Med Chem, 2017).
Activity calls are given as the source filed them. The calls are words filed in the database; no cut-off is given here.

Legend:
Mu-type opioid receptor [1] = molecular target: T1, Mu-type opioid receptor (Homo sapiens, UniProt P35372); assay: Agonist activity at human MOR expressed in HEK293 cells assessed as inhibition of forskolin-induced adenylyl cyclase-mediated cAMP accumulation after 30 mins by HTRF assay; assay type: functional, cell-based
[2] = molecular target: Delta-type opioid receptor (Homo sapiens, UniProt P41143); assay: Agonist activity at human DOR expressed in HEK293 cells assessed as inhibition of forskolin-induced adenylyl cyclase-mediated cAMP accumulation after 30 mins by HTRF assay; assay type: functional, cell-based
[3] = molecular target: T2, Kappa-type opioid receptor (Homo sapiens, UniProt P41145); assay: Agonist activity at human KOR expressed in HEK293 cells assessed as inhibition of forskolin-induced adenylyl cyclase-mediated cAMP accumulation after 30 mins by HTRF assay; assay type: functional, cell-based
Mu-type opioid receptor [4] = molecular target: T1, Mu-type opioid receptor; assay: Displacement of [3H]naloxone from recombinant human MOR expressed in HEK cell membranes incubated for 60 mins
Mu-type opioid receptor [5] = molecular target: T1, Mu-type opioid receptor; assay: Agonist activity at myc-tagged MOR (unknown origin) expressed in mouse AtT-20 cells harboring GIRK1/GIRK2 channels assessed as stimulation of membrane potential hyperpolarization at 1 uM by FLIPR assay; assay type: cell-based
Mu-type opioid receptor [6] = molecular target: T1, Mu-type opioid receptor; assay: Agonist activity at myc-tagged MOR (unknown origin) expressed in mouse AtT-20 cells harboring GIRK1/GIRK2 channels assessed as membrane potential hyperpolarization at 1 uM in presence of naloxone by FLIPR membrane potential; assay type: cell-based
[7] = Drug uptake in […] mouse plasma at 3 mg/kg, iv measured after 0.8 hrs by LC-MS/MS analysis; assay type: ADME, organism-based
[8] = Drug uptake in […] mouse brain at 3 mg/kg, iv measured after 0.8 hrs by LC-MS/MS analysis; assay type: ADME, organism-based; conditions: read-out: Drug uptake
[9] = Ratio of drug level in brain to plasma in […] mouse at 3 mg/kg, iv measured after 0.8 hrs; assay type: ADME, organism-based; conditions: read-out: BPR
Mus musculus [10] = assay: Antinociceptive activity in B6 mouse assessed as AUC of thermal withdrawal effect at 3 mg/kg, iv measured at every 10 mins for 1 hr by tail flick assay; assay type: functional, organism-based
Mus musculus [11] = assay: Antinociceptive activity in iv dosed B6 mouse assessed as increase in tail flick latency at 3 mg/kg, iv measured at every 10 mins for 1 hr; assay type: functional
Mus musculus [12] = assay: Antinociceptive activity in iv dosed B6 mouse assessed as increase in tail flick latency at 3 mg/kg, iv measured at every 10 mins for 1 hr in presence of opioid antagonist naloxone; assay type: functional, organism-based
[13] = molecular target: T2, Kappa-type opioid receptor; assay: Agonist activity at human KOR expressed in HEK293 cells assessed as inhibition of forskolin-induced adenylyl cyclase-mediated cAMP accumulation at 1 uM after 30 mins in presence of KOR antagonist nor-binaltorphimine by HTRF assay; assay type: functional, cell-based

T2 sequence (P41145 whole entry): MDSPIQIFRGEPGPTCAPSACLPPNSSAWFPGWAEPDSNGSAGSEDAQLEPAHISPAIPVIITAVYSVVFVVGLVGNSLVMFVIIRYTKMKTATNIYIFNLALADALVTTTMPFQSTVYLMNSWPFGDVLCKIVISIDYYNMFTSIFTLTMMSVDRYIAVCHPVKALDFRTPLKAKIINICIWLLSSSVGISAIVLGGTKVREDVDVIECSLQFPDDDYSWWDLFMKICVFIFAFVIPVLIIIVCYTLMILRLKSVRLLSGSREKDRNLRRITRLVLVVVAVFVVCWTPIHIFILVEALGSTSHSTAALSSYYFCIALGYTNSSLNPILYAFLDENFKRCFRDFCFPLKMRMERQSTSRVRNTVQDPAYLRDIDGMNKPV
Sequence of Delta-type opioid receptor (P41143 whole entry): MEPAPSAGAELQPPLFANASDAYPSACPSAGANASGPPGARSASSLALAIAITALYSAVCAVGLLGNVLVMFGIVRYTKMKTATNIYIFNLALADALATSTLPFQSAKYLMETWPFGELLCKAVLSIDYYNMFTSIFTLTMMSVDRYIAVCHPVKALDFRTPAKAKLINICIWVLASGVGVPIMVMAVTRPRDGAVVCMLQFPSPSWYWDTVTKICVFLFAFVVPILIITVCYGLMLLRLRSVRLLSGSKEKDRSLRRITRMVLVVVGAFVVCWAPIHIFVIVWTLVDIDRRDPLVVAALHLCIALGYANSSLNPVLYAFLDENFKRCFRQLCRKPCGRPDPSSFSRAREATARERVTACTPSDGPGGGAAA
T1 sequence (P35372 whole entry): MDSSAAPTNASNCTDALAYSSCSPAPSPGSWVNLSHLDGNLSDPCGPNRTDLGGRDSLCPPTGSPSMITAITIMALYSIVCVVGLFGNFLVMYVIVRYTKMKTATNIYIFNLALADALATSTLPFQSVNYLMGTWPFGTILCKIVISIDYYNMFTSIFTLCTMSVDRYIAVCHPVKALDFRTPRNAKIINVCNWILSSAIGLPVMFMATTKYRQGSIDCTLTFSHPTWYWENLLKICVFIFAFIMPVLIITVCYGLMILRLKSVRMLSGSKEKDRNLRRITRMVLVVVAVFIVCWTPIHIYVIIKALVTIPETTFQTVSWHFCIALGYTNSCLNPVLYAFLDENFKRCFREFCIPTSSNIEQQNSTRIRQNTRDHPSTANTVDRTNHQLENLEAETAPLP

SMILES	IC50 (Mu-type opioid receptor [1])	Imax (Mu-type opioid receptor [1])	IC50 ([2]; hek293)	IC50 [3]	Imax [3]	Ki (Mu-type opioid receptor [4])	also measured
CCCCN1CCc2ccccc2C1CNC(=O)c1ccc(C)cc1 (configuration not stated)	1330 nM	69.3%	Not Active	780 nM	24.1%	–	–
CN1CCc2ccccc2C1CNC(=O)c1ccc(Cl)c(Cl)c1 (configuration not stated)	50 nM	69.5%	Not Active	440 nM	28.3%	6.91 nM	Activity (Mu-type opioid receptor [5]): 20%; Activity (Mu-type opioid receptor [6]): inactive; concentration at 0.8 h [7]: 2610 ng/mL; concentration at 0.8 h [8]: 11700 ng/g; Kp at 0.8 h [9]: 4.5; AUC (Mus musculus [10]): 371 min.sec; ED50 (Mus musculus [11]): 1.06 mg/kg; Activity (Mus musculus [12]): inactive; Activity [13]: inactive
Cc1ccc(C(=O)NCC2NCCc3ccccc32)cc1 (configuration not stated)	–	–	–	–	–	6.47 nM	–
O=C(NCC1NCCc2ccccc21)c1ccc(OC(F)(F)F)cc1 (configuration not stated)	1220 nM	–	–	260 nM	38.2%	–	Imax [2]: 22.7%; IC50 ([2]; read-out: IC50): 40 nM
Cc1ccc(C(=O)NCC2NCCc3ccccc32)cc1C (configuration not stated)	290 nM	–	Not Active	8930 nM	27%	36.4 nM	–
Cc1ccc(C(=O)NCC2c3ccccc3CCN2C)cc1 (configuration not stated)	650 nM	72.4%	Not Active	140 nM	27.1%	5.28 nM	–
O=C(NCC1NCCc2ccccc21)c1ccc(Cl)c(Cl)c1 (configuration not stated)	230 nM	–	Not Active	810 nM	27.5%	54.3 nM	–
CCc1ccc(C(=O)NCC2c3ccccc3CCN2C)cc1 (configuration not stated)	3280 nM	61.9%	–	490 nM	26.3%	2.27 nM	Imax [2]: 22.1%; IC50 ([2]; read-out: IC50): 190 nM
COc1ccc(C(=O)NCC2NCCc3ccccc32)cc1 (configuration not stated)	1580 nM	–	Not Active	50 nM	21.8%	–	–
Cc1ccc(C(=O)NCC2c3ccccc3CCN2C)cc1C (configuration not stated)	80 nM	69.3%	Not Active	80 nM	34.6%	30.8 nM	Activity (Mu-type opioid receptor [5]): 20%; Activity (Mu-type opioid receptor [6]): inactive; concentration at 0.8 h [7]: 1460 ng/mL; concentration at 0.8 h [8]: 7420 ng/g; Kp at 0.8 h [9]: 5.1; AUC (Mus musculus [10]): 268 min.sec; Activity (Mus musculus [12]): inactive
O=C(NCC1NCCc2ccccc21)c1ccc(Cl)cc1 (configuration not stated)	220 nM	–	–	90 nM	35.1%	–	Imax [2]: 24.1%; IC50 ([2]; read-out: IC50): 4180 nM
O=C(NCC1NCCc2ccccc21)c1cccc(Cl)c1 (configuration not stated)	2030 nM	78.2%	–	1120 nM	26.9%	–	Imax [2]: 21.1%; IC50 ([2]; read-out: IC50): 170 nM
Cc1cccc(C(=O)NCC2NCCc3ccccc32)c1 (configuration not stated)	1270 nM	68.3%	Not Active	140 nM	26.6%	–	–
Cc1ccc(C(=O)NCC2c3ccccc3CCN2CCCl)cc1 (configuration not stated)	200 nM	67.8%	Not Active	2940 nM	30%	–	–
C[C@@H](NC(=O)[C@@H](N)Cc1ccc(O)cc1)C(=O)NCC(=O)N(C)[C@@H](Cc1ccccc1)C(=O)NCCO	–	82.4%	–	–	–	–	–
CCc1ccc(C(=O)NCC2NCCc3ccccc32)cc1 (configuration not stated)	310 nM	63.9%	Not Active	570 nM	29%	4.65 nM	–
O=C(NCC1NCCc2ccccc21)c1ccc(F)cc1 (configuration not stated)	830 nM	–	–	18600 nM	38.9%	–	Imax [2]: 22%; IC50 ([2]; read-out: IC50): 40 nM
O=C(NCC1c2ccccc2CCN1S(=O)(=O)c1ccc(Br)cc1OC(F)(F)F)C1CCCCC1 (configuration not stated)	–	–	–	–	–	–	concentration at 0.8 h [7]: 1290 ng/mL; concentration at 0.8 h [8]: 1440 ng/g; Kp at 0.8 h [9]: 1.1
